Laboratory results published in the supplement of paper PMC8671470.

What was measured:
Settings in all cases: 72 h
HEL [1] = assay: cell viability (% survival relative to DMSO control, bortezomib = 0%); higher = less cytotoxic
Method in brief: (§1)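 Percent survival figures are means of duplicate wells. They were obtained by CellTiter-Glo luminescence after 10 AML and 5 CML cell lines spent 72 h at 37 °C with 5% CO2 in 384-well plates with compounds at 1, 10, 100, 1000 or 10000 nM. Vehicle was set to 100% and a 10 µM positive control to 0%.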

ML-2 [2] = assay: as above
Method in brief: as §1

HL-60 [3] = assay: as above
Method in brief: as §1

SHI-1 [4] = assay: as above
Method in brief: as §1

Mono-Mac-6 [5] = assay: as above
Method in brief: as §1

KCL-22 [6] = assay: as above
Method in brief: as §1

KU-812 [7] = assay: as above
Method in brief: as §1

NOMO-1 [8] = assay: as above
Method in brief: as §1

K-562 [9] = assay: as above
Method in brief: as §1

MOLM-13 [10] = assay: as above
Method in brief: as §1

KG-1 [11] = assay: as above
Method in brief: as §1

THP-1 [12] = assay: as above
Method in brief: as §1

MV4-11 [13] = assay: as above
Method in brief: as §1

LAMA-84 [14] = assay: as above
Method in brief: as §1

BV-173 [15] = assay: as above
Method in brief: as §1

HEL [16] = system: HEL
Method in brief: (§2)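 For the IC50, dose–response curves were fitted with a log-logistic model. The data came from fifteen myeloid leukaemia cell lines grown in RPMI 1640 at densities in the linear growth range and incubated in 384-well plates for 72 h at 37 °C under 5% CO2. Doses were five tenfold steps from 1 to 10,000 nM in duplicate, and luminescent ATP viability was normalised to vehicle and to a positive control at 10 µM before four-parameter fitting.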

ML-2 [17] = system: ML-2
Method in brief: as §2

HL-60 [18] = system: HL-60
Method in brief: as §2

SHI-1 [19] = system: SHI-1
Method in brief: as §2

Mono-Mac-6 [20] = system: Mono-Mac-6
Method in brief: as §2

KCL-22 [21] = system: KCL-22
Method in brief: as §2

KU-812 [22] = system: KU-812
Method in brief: as §2

NOMO-1 [23] = system: NOMO-1
Method in brief: as §2

K-562 [24] = system: K-562
Method in brief: as §2

MOLM-13 [25] = system: MOLM-13
Method in brief: as §2

KG-1 [26] = system: KG-1
Method in brief: as §2

THP-1 [27] = system: THP-1
Method in brief: as §2

MV4-11 [28] = system: MV4-11
Method in brief: as §2

LAMA-84 [29] = system: LAMA-84
Method in brief: as §2

BV-173 [30] = system: BV-173
Method in brief: as §2

CC/C=C\C[C@H]1C(=O)CC[C@@H]1CC(=O)OC [Methyl jasmonate]
cell viability [%]
Settings	1 nM	10 nM	100 nM	1000 nM	10000 nM
BV-173 [15]	108	111	103	93.2	103
HEL [1]	97.3	99.1	114	99.5	111
HL-60 [3]	92.7	99.1	105	96.5	111
K-562 [9]	90.2	95.9	104	102	91.5
KCL-22 [6]	109	99.9	96.9	91.9	103
KG-1 [11]	115	95.7	93.9	101	105
KU-812 [7]	99.3	108	110	99.1	104
LAMA-84 [14]	95.6	100	105	98.7	110
ML-2 [2]	115	110	101	99.9	108
MOLM-13 [10]	108	113	116	94.3	96.6
MV4-11 [13]	106	104	108	105	101
Mono-Mac-6 [5]	102	101	111	96.2	107
NOMO-1 [8]	104	110	101	93	100
SHI-1 [4]	98.8	94.2	90.8	99.3	98
THP-1 [12]	103	111	101	95.3	106

Settings	IC50 (cell viability) [µM]
BV-173 [30]	> 10
HEL [16]	> 10
HL-60 [18]	> 10
K-562 [24]	> 10
KCL-22 [21]	> 10
KG-1 [26]	> 10
KU-812 [22]	> 10
LAMA-84 [29]	> 10
ML-2 [17]	> 10
MOLM-13 [25]	> 10
MV4-11 [28]	> 10
Mono-Mac-6 [20]	> 10
NOMO-1 [23]	> 10
SHI-1 [19]	> 10
THP-1 [27]	> 10
